Measurements reported in the NIST ThermoML archive (doi:10.1007/s10765-007-0223-x).

Assay: xn = mol fraction of the nth substance listed
Details: 101 kPa, Liquid; for speed of sound: Single path-length method

COC(C)(C)C [2-methoxy-2-methylpropane] + CC(C)CC(C)(C)C
Details	mass density [kg/m3]	speed of sound [m/s]
288.15 K, x1 = 0.049	697.553	1121.8
288.15 K, x1 = 0.091	698.921	1119.5
288.15 K, x1 = 0.197	702.655	1113.9
288.15 K, x1 = 0.296	706.427	1108.7
288.15 K, x1 = 0.394	710.506	1103.7
288.15 K, x1 = 0.507	715.659	1098.5
288.15 K, x1 = 0.603	720.373	1094.9
288.15 K, x1 = 0.7	725.737	1090.9
288.15 K, x1 = 0.79	731.164	1087.8
288.15 K, x1 = 0.898	738.236	1084.6
288.15 K, x1 = 0.951	742.111	1083.4
288.15 K, x1 = 1	744.861	1082.1
290.65 K, x1 = 0.049	695.495	1111.2
290.65 K, x1 = 0.091	696.847	1108.8
290.65 K, x1 = 0.197	700.534	1103.3
290.65 K, x1 = 0.296	704.261	1097.9
290.65 K, x1 = 0.394	708.292	1092.9
290.65 K, x1 = 0.507	713.386	1087.6
290.65 K, x1 = 0.603	718.048	1083.9
290.65 K, x1 = 0.7	723.357	1079.8
290.65 K, x1 = 0.79	728.726	1076.7
290.65 K, x1 = 0.898	735.725	1073.3
290.65 K, x1 = 0.951	739.564	1072
290.65 K, x1 = 1	742.259	1070.6
293.15 K, x1 = 0.049	693.424	1100.6
293.15 K, x1 = 0.091	694.76	1098.2
293.15 K, x1 = 0.197	698.399	1092.6
293.15 K, x1 = 0.296	702.081	1087.1
293.15 K, x1 = 0.394	706.064	1082
293.15 K, x1 = 0.507	711.097	1076.7
293.15 K, x1 = 0.603	715.704	1072.9
293.15 K, x1 = 0.7	720.957	1068.7
293.15 K, x1 = 0.79	726.269	1065.5
293.15 K, x1 = 0.898	733.196	1062
293.15 K, x1 = 0.951	736.997	1060.6
293.15 K, x1 = 1	739.654	1059.1
295.65 K, x1 = 0.049	691.351	1090
295.65 K, x1 = 0.091	692.668	1087.5
295.65 K, x1 = 0.197	696.259	1081.8
295.65 K, x1 = 0.296	699.893	1076.2
295.65 K, x1 = 0.394	703.829	1071.1
295.65 K, x1 = 0.507	708.799	1065.6
295.65 K, x1 = 0.603	713.354	1061.7
295.65 K, x1 = 0.7	718.545	1057.5
295.65 K, x1 = 0.79	723.8	1054.2
295.65 K, x1 = 0.898	730.656	1050.5
295.65 K, x1 = 0.951	734.419	1049
295.65 K, x1 = 1	737.036	1047.8
298.15 K, x1 = 0.049	689.271	1079.4
298.15 K, x1 = 0.091	690.571	1076.9
298.15 K, x1 = 0.197	694.113	1071.2
298.15 K, x1 = 0.296	697.7	1065.5
298.15 K, x1 = 0.394	701.586	1060.2
298.15 K, x1 = 0.507	706.495	1054.7
298.15 K, x1 = 0.603	710.995	1050.7
298.15 K, x1 = 0.7	716.128	1046.4
298.15 K, x1 = 0.79	721.323	1042.9
298.15 K, x1 = 0.898	728.107	1039.2
298.15 K, x1 = 0.951	731.831	1037.6
298.15 K, x1 = 1	734.406	1036.6
300.65 K, x1 = 0.049	687.187	1068.9
300.65 K, x1 = 0.091	688.468	1066.3
300.65 K, x1 = 0.197	691.962	1060.5
300.65 K, x1 = 0.296	695.502	1054.7
300.65 K, x1 = 0.394	699.338	1049.4
300.65 K, x1 = 0.507	704.182	1043.8
300.65 K, x1 = 0.603	708.63	1039.7
300.65 K, x1 = 0.7	713.701	1035.2
300.65 K, x1 = 0.79	718.837	1031.7
300.65 K, x1 = 0.898	725.547	1027.9
300.65 K, x1 = 0.951	729.232	1026.2
300.65 K, x1 = 1	731.766	1025.4
303.15 K, x1 = 0.049	685.097	1058.4
303.15 K, x1 = 0.091	686.359	1055.8
303.15 K, x1 = 0.197	689.806	1050
303.15 K, x1 = 0.296	693.296	1044
303.15 K, x1 = 0.394	697.081	1038.7
303.15 K, x1 = 0.507	701.866	1032.8
303.15 K, x1 = 0.603	706.257	1028.7
303.15 K, x1 = 0.7	711.266	1024.1
303.15 K, x1 = 0.79	716.339	1020.4
303.15 K, x1 = 0.898	722.977	1016.5
303.15 K, x1 = 0.951	726.622	1014.8
303.15 K, x1 = 1	729.112	1014
305.65 K, x1 = 0.049	683.001	1048.1
305.65 K, x1 = 0.091	684.244	1045.4
305.65 K, x1 = 0.197	687.643	1039.5
305.65 K, x1 = 0.296	691.083	1033.4
305.65 K, x1 = 0.394	694.818	1028
305.65 K, x1 = 0.507	699.54	1021.9
305.65 K, x1 = 0.603	703.873	1017.7
305.65 K, x1 = 0.7	708.82	1013
305.65 K, x1 = 0.79	713.83	1009.2
305.65 K, x1 = 0.898	720.394	1005.2
305.65 K, x1 = 0.951	723.998	1003.4
305.65 K, x1 = 1	726.444	1002.7
308.15 K, x1 = 0.049	680.9	1037.7
308.15 K, x1 = 0.091	682.124	1035
308.15 K, x1 = 0.197	685.47	1029
308.15 K, x1 = 0.296	688.864	1022.8
308.15 K, x1 = 0.394	692.544	1017.6
308.15 K, x1 = 0.507	697.225	1011
308.15 K, x1 = 0.603	701.481	1006.8
308.15 K, x1 = 0.7	706.365	1002
308.15 K, x1 = 0.79	711.31	998.04
308.15 K, x1 = 0.898	717.802	993.91
308.15 K, x1 = 0.951	721.377	992.13
308.15 K, x1 = 1	723.763	991.34
310.65 K, x1 = 0.049	678.79	1027.3
310.65 K, x1 = 0.091	679.994	1024.6
310.65 K, x1 = 0.197	683.293	1018.5
310.65 K, x1 = 0.296	686.637	1012.2
310.65 K, x1 = 0.394	690.27	1006.9
310.65 K, x1 = 0.507	694.875	1000.2
310.65 K, x1 = 0.603	699.077	995.9
310.65 K, x1 = 0.7	703.915	991.12
310.65 K, x1 = 0.79	708.777	986.9
310.65 K, x1 = 0.898	715.208	982.76
310.65 K, x1 = 0.951	718.741	981.15
310.65 K, x1 = 1	721.069	980
313.15 K, x1 = 0.049	676.674	1017
313.15 K, x1 = 0.091	677.857	1014.4
313.15 K, x1 = 0.197	681.108	1008
313.15 K, x1 = 0.296	684.416	1001.9
313.15 K, x1 = 0.394	687.984	996.15
313.15 K, x1 = 0.507	692.513	989.48
313.15 K, x1 = 0.603	696.659	984.99
313.15 K, x1 = 0.7	701.432	980.08
313.15 K, x1 = 0.79	706.232	975.76
313.15 K, x1 = 0.898	712.585	971.49
313.15 K, x1 = 0.951	716.075	969.68
313.15 K, x1 = 1	718.357	968.63
315.65 K, x1 = 0.049	674.551	1006.8
315.65 K, x1 = 0.091	675.716	1004
315.65 K, x1 = 0.197	678.915	997.54
315.65 K, x1 = 0.296	682.172	991.38
315.65 K, x1 = 0.394	685.682	985.48
315.65 K, x1 = 0.507	690.141	978.73
315.65 K, x1 = 0.603	694.229	974.09
315.65 K, x1 = 0.7	698.938	969.06
315.65 K, x1 = 0.79	703.665	964.56
315.65 K, x1 = 0.898	709.948	960.23
315.65 K, x1 = 0.951	713.392	958.31
315.65 K, x1 = 1	715.636	957.31
318.15 K, x1 = 0.049	672.418	996.53
318.15 K, x1 = 0.091	673.564	993.65
318.15 K, x1 = 0.197	676.709	987.14
318.15 K, x1 = 0.296	679.911	980.84
318.15 K, x1 = 0.394	683.366	974.83
318.15 K, x1 = 0.507	687.763	968.07
318.15 K, x1 = 0.603	691.788	963.2
318.15 K, x1 = 0.7	696.427	958.04
318.15 K, x1 = 0.79	701.097	953.55
318.15 K, x1 = 0.898	707.292	949.03
318.15 K, x1 = 0.951	710.693	947.02
318.15 K, x1 = 1	712.897	946.03
320.65 K, x1 = 0.049	670.282	986.33
320.65 K, x1 = 0.091	671.436	983.34
320.65 K, x1 = 0.197	674.493	976.73
320.65 K, x1 = 0.296	677.642	970.3
320.65 K, x1 = 0.394	681.043	964.2
320.65 K, x1 = 0.507	685.37	957.34
320.65 K, x1 = 0.603	689.334	952.36
320.65 K, x1 = 0.7	693.905	947.08
320.65 K, x1 = 0.79	698.504	942.46
320.65 K, x1 = 0.898	704.622	937.81
320.65 K, x1 = 0.951	707.978	935.72
320.65 K, x1 = 1	710.141	934.76
323.15 K, x1 = 0.049	668.138	976.18
323.15 K, x1 = 0.091	669.267	973.04
323.15 K, x1 = 0.197	672.267	966.34
323.15 K, x1 = 0.296	675.361	959.8
323.15 K, x1 = 0.394	678.707	953.63
323.15 K, x1 = 0.507	682.969	946.69
323.15 K, x1 = 0.603	686.867	941.57
323.15 K, x1 = 0.7	691.375	936.24
323.15 K, x1 = 0.79	695.909	931.51
323.15 K, x1 = 0.898	701.938	926.65
323.15 K, x1 = 0.951	705.25	924.5
323.15 K, x1 = 1	707.381	923.46
